# In patent US8716292B2, “Riminophenazines with 2-(heteroaryl)amino substituents and their anti-microbial activity” (priority 2010, dated 2014):
# Tested on: Mycobacterium tuberculosis H37Rv strains
# Experiment: In vitro assay for antimicrobial susceptibility (microplate Alamar blue MIC)
# Format: cell-based
# Settings: Mycobacterium tuberculosis, H37RV, 7H9, Alamar blue, inhibition ≧90%; read-out: MIC (μg/mL) against H37Rv
row,Compound,MIC [µg/mL]
1,"CC(C)/N=c1\cc2n(-c3ccc(OC(F)(F)F)cc3)c3ccccc3nc-2cc1Nc1ncccn1 [TBI-951, 5-(4-Trifluoromethoxyphenyl)-3-(1-methylethyl)imino-2-(pyrimidin-2-yl)amino-3,5-dihydrophenazine]",0.019
2,"COC1CCC(/N=c2\cc3n(-c4ccc(F)cc4)c4ccccc4nc-3cc2Nc2cnccn2)CC1 (stereo not shown) [TBI-1079, 5-(4-Fluorophenyl)-3-(4-methoxycyclohexyl)imino-2-(pyrazin-2-yl)amino-3,5-dihydrophenazine]",0.037
3,"CC(C)/N=c1\cc2n(-c3ccc(Cl)cc3)c3ccccc3nc-2cc1Nc1ncccn1 [TBI-1051, 5-(4-chlorophenyl)-3-(1-methylethyl)imino-2-(pyrimidin-2-yl)amino-3,5-dihydrophenazine]",0.015

# Same assay, conditions: Mycobacterium tuberculosis, H37RV, in vitro, Mycobacterium tuberculosis H37Rv strains; read-out: MIC (μg/mL) against H37Rv
row,Compound,MIC [µg/mL]
1,"COc1ncccc1Nc1cc2nc3ccccc3n(-c3ccc(OC(F)(F)F)cc3)c-2c/c1=N\CCN1CCOCC1 [TBI-169, 5-(4-Trifluoromethoxyphenyl)-3-(2-morpholinoethyl)imino-2-(2-methoxy-3-pyridyl)amino-3,5-dihydrophenazine]",0.06
2,"CC(=O)Nc1ccc(Nc2cc3nc4ccccc4n(-c4ccc(C(F)(F)F)cc4)c-3c/c2=N\C2CCC(O)CC2)cn1 (stereo not shown) [TBI-714, 5-(4-Trifluoromethylphenyl)-3-(4-hydroxycyclohexyl)imino-2-(6-acetamino-3-pyridyl)amino-3,5-dihydrophenazine]",0.686
3,"COc1ccc2nc3cc(Nc4cccnc4OC)/c(=N/C4CCC4)cc-3n(-c3ccc(Cl)cc3)c2c1 [TBI-895, 7-Methoxy-5-(4-chlorophenyl)-3-cyclobutylimino-2-(2-methoxy-3-pyridyl)amino-3,5-dihydrophenazine]",0.125
4,"COCC(COC)/N=c1\cc2n(-c3cccc(Cl)c3)c3ccccc3nc-2cc1Nc1ccc(C)nc1 [TBI-80C, 5-(3-Chlorophenyl)-3-(1,3-dimethoxyisopropyl)imino-2-(6-methyl-3-pyridyl)amino-3,5-dihydrophenazine]",0.327
5,"COCC(C/N=c1\cc2n(-c3cccc(Cl)c3)c3ccccc3nc-2cc1Nc1cccnc1OC)OC (stereo not shown) [TBI-826, 5-(3-Chlorophenyl)-3-(2,3-dimethoxy-1-propyl)imino-2-(2-methoxy-3-pyridyl)amino-3,5-dihydrophenazine]",0.125
6,"COc1ccc2nc3cc(Nc4cccnc4OC)/c(=N/C4CC4)cc-3n(-c3ccc(Cl)cc3)c2c1 [TBI-894, 7-Methoxy-5-(4-chlorophenyl)-3-cyclopropylimino-2-(2-methoxy-3-pyridyl)amino-3,5-dihydrophenazine]",0.06
7,"Cc1ccc(-n2c3c/c(=N\C4CC4)c(Nc4ccc(C)nc4)cc-3nc3ccccc32)cc1 [TBI-340, 5-(4-Methylphenyl)-3-cyclopropylimino-2-(6-methyl-3-pyridyl)amino-3,5-dihydrophenazine]",0.149
8,"COc1ncccc1Nc1cc2nc3ccccc3n(-c3ccc(Cl)cc3Cl)c-2c/c1=N\C(C)C [TBI-369, 5-(2,4-Dichlorophenyl)-3-(1-methylethyl)imino-2-(2-methoxy-3-pyridyl)amino-3,5-dihydrophenazine]",0.104
9,"COc1ncccc1Nc1cc2nc3ccccc3n(-c3ccc(F)cc3)c-2c/c1=N\C1CCOCC1 [TBI-1003, 5-(4-Fluorophenyl)-3-(4-tetrahydropyranyl)imino-2-(2-methoxy-3-pyridyl)amino-3,5-dihydrophenazine]",0.039
10,"COc1ncccc1Nc1cc2nc3ccccc3n(-c3ccc(C(F)(F)F)cc3)c-2c/c1=N\C1CCOCC1 [TBI-701, 5-(4-Trifluoromethylphenyl)-3-(4-tetrahydropyranyl)imino-2-(2-methoxy-3-pyridyl)amino-3,5-dihydrophenazine]",0.016
11,"Cc1ccc(Nc2cc3nc4ccc(F)cc4n(-c4ccc(Cl)c(Cl)c4)c-3c/c2=N\C2CCOCC2)cn1 [TBI-949, 7-Fluoro-5-(3,4-dichlorophenyl)-3-(4-tetrahydropyranyl)imino-2-(6-methyl-3-pyridyl)amino-3,5-dihydrophenazine]",0.816
12,"COc1ncccc1Nc1cc2nc3ccccc3n(-c3ccc(Br)cc3)c-2c/c1=N\C(C)C [TBI-516, 5-(4-Bromophenyl)-3-(1-methylethyl)imino-2-(2-methoxy-3-pyridyl)amino-3,5-dihydrophenazine]",0.049
13,"CC(C)CN1CCC(/N=c2\cc3n(-c4ccc(C(F)(F)F)cc4)c4ccccc4nc-3cc2Nc2cccnc2)CC1 [TBI-687, 5-(4-Trifluoromethylphenyl)-3-(N-isobutyl-4-piperidyl)imino-2-(3-pyridyl)amino-3,5-dihydrophenazine]",0.06
14,"CC(C)/N=c1\cc2n(-c3ccccc3C(F)(F)F)c3ccccc3nc-2cc1Nc1cccnc1 [TBI-720, 5-(2-Trifluoromethylphenyl)-3-(1-methylethyl)imino-2-(3-pyridyl)amino-3,5-dihydrophenazine]",0.214
15,"Cc1ncccc1Nc1cc2nc3ccccc3n(-c3ccc(F)cc3)c-2c/c1=N\C1CC1 [TBI-1014, 5-(4-Fluorophenyl)-3-cyclopropylimino-2-(2-methyl-3-pyridyl)amino-3,5-dihydrophenazine]",0.025
16,"Fc1ccc(-n2c3c/c(=N\C4CC4)c(Nc4cccnc4)cc-3nc3ccccc32)cc1F [TBI-1429, 5-(3,4-Difluorophenyl)-3-cyclopropylimino-2-(3-pyridyl)amino-3,5-dihydrophenazine]",0.011
17,"COc1ncccc1Nc1cc2nc3cc(F)ccc3n(-c3ccc(Cl)cc3)c-2c/c1=N\C(C)C [TBI-929, 8-Fluoro-5-(4-chlorophenyl)-3-(1-methylethyl)imino-2-(2-methoxy-3-pyridyl)amino-3,5-dihydrophenazine]",0.125

row,Compound,MIC [µg/mL]
1,"COCC(COC)/N=c1\cc2n(-c3cccc(Cl)c3)c3ccccc3nc-2cc1Nc1cccnc1OC [TBI-825, 5-(3-Chlorophenyl)-3-(1,3-dimethoxyisopropyl)imino-2-(2-methoxy-3-pyridyl)amino-3,5-dihydrophenazine]",0.125
2,"FC(F)(F)Oc1cccc(-n2c3c/c(=N\C4CCOCC4)c(Nc4cccnc4)cc-3nc3ccccc32)c1 [TBI-1020, 5-(3-Trifluoromethoxyphenyl)-3-(4-tetrahydropyranyl)imino-2-(3-pyridyl)amino-3,5-dihydrophenazine]",0.058
3,COc1ncccc1Nc1cc2nc3ccc(F)cc3n(-c3ccc(Cl)cc3)c-2c/c1=N\C1CCC(OC)CC1 (stereo not shown) [TBI-924],0.06
4,"CC(=O)Nc1ccc(Nc2cc3nc4ccccc4n(-c4ccc(C(F)(F)F)cc4)c-3c/c2=N\C2CCCCC2)cn1 [TBI-713, 5-(4-Trifluoromethylphenyl)-3-cyclohexylimino-2-(6-acetamino-3-pyridyl)amino-3,5-dihydrophenazine]",0.022
5,"COc1ccc2nc3cc(Nc4ccc(C)nc4)/c(=N/C4CCCCC4)cc-3n(-c3ccc(Cl)cc3)c2c1 [TBI-869, 7-Methoxy-5-(4-chlorophenyl)-3-cyclohexylimino-2-(6-methyl-3-pyridyl)amino-3,5-dihydrophenazine]",0.056
6,"Cc1ccc(Nc2cc3nc4ccccc4n(-c4ccc(Cl)cc4)c-3c/c2=N\C2CCN(CC(C)C)CC2)cn1 [TBI-447, 5-(4-Chlorophenyl)-3-(N-isobutyl-4-piperidyl)imino-2-(6-methyl-3-pyridyl)amino-3,5-dihydrophenazine]",0.028
7,"Cc1cncc(Nc2cc3nc4ccccc4n(-c4ccccc4)c-3c/c2=N\C2CCCCC2)c1 [TBI-082, 5-Phenyl-3-cyclohexylimino-2-(5-methyl-3-pyridyl)amino-3,5-dihydrophenazine]",0.111
8,"Cc1ccc(-n2c3c/c(=N\C(C)C)c(Nc4cccnc4C)cc-3nc3ccccc32)cc1 [TBI-321, 5-(4-Methylphenyl)-3-(1-methylethyl)imino-2-(2-methyl-3-pyridyl)amino-3,5-dihydrophenazine]",0.419
9,"COc1ncccc1Nc1cc2nc3ccccc3n(-c3ccc(F)cc3)c-2c/c1=N\C1CCCCC1 [TBI-1009, 5-(4-Fluorophenyl)-3-cyclohexylimino-2-(2-methoxy-3-pyridyl)amino-3,5-dihydrophenazine]",0.03
10,"COC1CCC(/N=c2\cc3n(-c4ccc(C)cc4)c4ccccc4nc-3cc2Nc2cccnc2)CC1 (stereo not shown) [TBI-301, 5-(4-Methylphenyl)-3-(4-methoxycyclohexyl)imino-2-(3-pyridyl)amino-3,5-dihydrophenazine]",0.06
11,"COc1ncccc1Nc1cc2nc3ccccc3n(-c3ccccc3)c-2c/c1=N\C1CCC(OC)CC1 (stereo not shown) [TBI-063, 5-Phenyl-3-(4-methoxycyclohexyl)imino-2-(2-methoxy-3-pyridyl)amino-3,5-dihydrophenazine]",0.06
12,"Cc1ccc(Nc2cc3nc4ccccc4n(-c4cccc(Cl)c4)c-3c/c2=N\C2CCCCC2)cn1 [TBI-80B, 5-(3-Chlorophenyl)-3-cyclohexylimino-2-(6-methyl-3-pyridyl)amino-3,5-dihydrophenazine]",0.125
13,"COC1CCC(/N=c2\cc3n(-c4ccc(F)cc4)c4ccc(C#N)cc4nc-3cc2Nc2ccc(C)nc2)CC1 (stereo not shown) [TBI-1068, 8-Cyano-5-(4-fluorophenyl)-3-(4-methyoxycyclohexyl)imino-2-(6-methyl-3-pyridyl)amino-3,5-dihydrophenazine]",0.165
14,"Brc1ccc(-n2c3c/c(=N\C4CC4)c(Nc4cccnc4)cc-3nc3ccccc32)cc1 [TBI-090, 5-(4-Bromophenyl)-3-cyclopropylimino-2-(3-pyridyl)amino-3,5-dihydrophenazine]",0.016
15,COc1ncccc1Nc1cc2nc3ccc(F)cc3n(-c3ccc(OC(F)(F)F)cc3)c-2c/c1=N\C1CCOCC1 [TBI-855],0.193
16,"COc1ccc(Nc2cc3nc4ccccc4n(-c4ccc(C)cc4)c-3c/c2=N\C2CCOCC2)cn1 [TBI-360, 5-(4-Methylphenyl)-3-(4-tetrahydropyranyl)imino-2-(6-methoxy-3-pyridyl)amino-3,5-dihydrophenazine]",0.2

# Same assay, conditions: in vitro, Mycobacterium tuberculosis H37Rv strains
row,Compound,MIC (μg/mL) against H37Rv [µg/mL]
1,"COc1ncccc1Nc1cc2nc3ccc(F)cc3n(-c3ccc(Cl)cc3)c-2c/c1=N\C(C)C [TBI-741, 5-(4-Chlorophenyl)-3-(1-methylethyl)imino-2-(2-methoxy-3-pyridyl)amino-7-fluoro-3,5-dihydrophenazine]",0.035
